Data on 6 molecules can be found in patent US11773127B2, “Compounds and methods for treating bacterial infections” (Washington University, priority 2017, dated 2023).

Each structure is given as a SMILES string. Converted amounts (≈) assume the structure as drawn. Like-named read-outs stand apart in the source and are kept apart here.

A short description of one data set: Kinetic solubility. In kind it is physicochemical.
The next data set deals with T1, FmlHLD (Escherichia coli, UniProt P77588).
T1 construct: 6xHis (C); made in house; host or cells: E. coli C600, periplasm, pTRC99a
T1 sequence (P77588 25-182): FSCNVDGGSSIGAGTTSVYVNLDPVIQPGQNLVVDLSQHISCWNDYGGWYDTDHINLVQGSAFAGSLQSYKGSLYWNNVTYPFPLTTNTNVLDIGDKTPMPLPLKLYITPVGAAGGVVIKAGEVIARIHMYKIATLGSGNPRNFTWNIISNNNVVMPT
As to the kind of experiment: biochemical. In kind it is binding, E. coli. To be noted: for inhibitory potency against FmlH, in words: ELISA-based competition assay. The method in brief:
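Sialidase-treated bovine submaxillary mucin (ds-BSM) coated wells, BSA-blocked, then biotinylated FmlH^LD (20 μg/mL) with or without compound for 1 h at room temperature. Bound lectin detected by streptavidin-HRP/TMB, A450.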
(In general: In an ELISA, binding on a coated surface is turned into a signal by an enzyme label.)

The nature of data set [1]: Stability in simulated intestinal fluid (SIF). In kind it is in vitro ADME. Here is the method: (§1) These compounds were assessed for their stability in simulated gastric fluid (SGF), simulated intestinal fluid (SIF), mouse liver microsomes, and blood plasma (Table 7). […] These findings are consistent with our earlier characterization of FimH antagonists (mannosides).
Data set [2] in a line: Stability in simulated gastric fluid (SGF). In kind it is in vitro ADME. Here is the method: as §1
Another data set can be described thus: Mouse plasma stability. In kind it is in vitro ADME. The protocol:
as §1

A short description of data set [3]: Mouse liver microsome stability. In kind it is in vitro ADME. The protocol:
as §1

Data set [4] can be described thus: Rat pharmacokinetics, plasma and urine, IV and PO. In kind it is in vivo. To be noted: for bioavailability: in vivo, 10 mg/kg PO vs 3 mg/kg IV, read-out: oral bioavailability (F); for bioavailability / renal clearance to the urine: rat. The protocol: In this example, the concentration of compounds 3086 and 3090 in rat plasma and urine following either a 10 mg/kg oral dose (PO; circular dots) or a 3 mg/kg intravenous dose (IV; square dots) was determined (FIG. 16, panel A (3086) and panel B (3090)). […] Thus, the metabolic stability of these compounds and clearance of these compounds has no relation to the permeability (oral or otherwise) of compounds. The highly polar nature of these molecules containing the sugar GalNAc and multiple polar functionalities precludes their permeability in the gut.

The nature of data set [5]: Mouse pharmacokinetics, IP injection. To be noted: 20 mg/kg IP.
Protocol: These studies were conducted via 20 mg/kg intraperitoneal (IP) injection to inform planned future IP studies in murine studies of chronic UTI, which require a single IP dose of galactoside to persist in the plasma for 6 hours prior to measurement of bladder bacterial burdens (FIG. 17)^22.
Setting [6] is: IC50 (μM), Table 6, sulfonamides 3078-3090.
Setting [7] is: rat plasma, 10 mg/kg PO or 3 mg/kg IV.

What is called kinetic solubility is solubility judged after dilution from a stock solution rather than from solid. As a reminder, the IC50 is the midpoint of a concentration-inhibition curve. Take `CC(=O)N[C@H]1[C@H](Oc2cccc(F)c2-c2cccc(NS(C)(=O)=O)c2)O[C@H](CO)[C@H](O)[C@@H]1O` [Compound 3080, N-((2S,3R,4R,5R,6R)-2-((6-fluoro-3′-(methylsulfonamido)-[1,1′-biphenyl]-2-yl)oxy)-4,5-dihydroxy-6-(hydroxymethyl)tetrahydro-2H-pyran-3-yl)acetamide]: the solubility (kinetic) in “Kinetic solubility” is reported as 197 µM (≈ 95.4 µg/mL). For the same molecule, the IC50 at FmlHLD (setting [6]) turned out to be 0.15 µM. The “SIF % remaining 2 h” value in data set [1] is 93.79%. Also, the “SGF % remaining 6 h” value in data set [2] is listed as 91.95%. Further, the “Mouse plasma % remaining 2 h” value in “Mouse plasma stability” was 89.1%. Moreover, in data set [3], the “Mouse liver microsomes (t1/12 min)” value was >145 min.

By bioavailability is commonly meant dose-corrected exposure relative to a reference, in per cent. The molecule `CC(=O)N[C@H]1[C@H](Oc2cccc(C)c2-c2cccc(NS(=O)(=O)C3CC3)c2)O[C@H](CO)[C@H](O)[C@@H]1O` [Compound 3086, N-((2S,3R,4R,5R,6R)-2-((3′-(cyclopropanesulfonamido)-6-methyl-[1,1′-biphenyl]-2-yl)oxy)-4,5-dihydroxy-6-(hydroxymethyl)tetrahydro-2H-pyran-3-yl)acetamide] gave a solubility (kinetic) in the data set “Kinetic solubility” of 196 µM (≈ 99.3 µg/mL). For the same molecule, in data set [4], the bioavailability is < 1% and the “renal clearance to the urine” value is on record as “low renal clearance to the urine”. Besides, in data set [4] (setting [7]), the “clearance (Cl)” value is reported as 43.8 mL/min/kg and the t1/2 worked out at 1.46 h. Moreover, at FmlHLD, the “inhibitory potency against FmlH, in words” value is reported as “retain the same activity as the methyl sulfonamides”. At FmlHLD (setting [6]), this molecule showed an IC50 of 0.12 µM. In addition, the “SIF % remaining 2 h” value in data set [1] was 100.00%. For the same molecule, in data set [2], the “SGF % remaining 6 h” value is 100.00%. Also, in “Mouse plasma stability”, the “Mouse plasma % remaining 2 h” value came to 84.1%. The “Mouse liver microsomes (t1/12 min)” value in data set [3] is listed as >145 min.

The molecule `Cc1cccc(O[C@@H]2OC(CO)[C@H](O)[C@H](O)[C@@H]2NC(=O)C(F)(F)F)c1-c1cccc(NS(C)(=O)=O)c1` (stereo partly drawn) [Compound 3088, N-((2S,3S,4R,5R)-4,5-dihydroxy-6-(hydroxymethyl)-2-((6-methyl-3′-(methylsulfonamido)-[1,1′-biphenyl]-2-yl)oxy)tetrahydro-2H-pyran-3-yl)-2,2,2-trifluoroacetimidic acid] gave a kinetic solubility in “Kinetic solubility” (kinetic from dmso stock) of 164 µM (≈ 87.7 µg/mL). Moreover, half-maximal inhibition on FmlHLD (setting [6]) (IC50) was put at 0.11 µM. In data set [1], the “SIF % remaining 2 h” value is reported as 89.15%. In addition, in data set [2], the “SGF % remaining 6 h” value is recorded as 90.95%. Besides, the “Mouse plasma % remaining 2 h” value in “Mouse plasma stability” worked out at 88.9%. For the same molecule, the “Mouse liver microsomes (t1/12 min)” value in data set [3] is listed as >145 min.

The Cmax is the maximum level reached in the sampled fluid or tissue. For `CC(=O)N[C@H]1[C@H](Oc2cccc(C)c2-c2cccc(NS(C)(=O)=O)c2)O[C@H](CO)[C@H](O)[C@@H]1O` [Compound 3084, N-((2S,3R,4R,5R,6R)-4,5-dihydroxy-6-(hydroxymethyl)-2-((6-methyl-3′-(methylsulfonamido)-[1,1′-biphenyl]-2-yl)oxy)tetrahydro-2H-pyran-3-yl)acetamide], in data set [5], the Cmax stood at 7897 ng/mL; the “calculated AUC” value is on record as 6300 ng·h/mL; the “compound exposure at 8 h” value is reported as “moderate compound exposure”; the “half-life, t1/2” value is on record as 1.13 h. For the same molecule, in the data set “Kinetic solubility”, the kinetic solubility turned out to be 195 µM (≈ 93.7 µg/mL). Besides, the IC50 at FmlHLD (IC50) came out at 0.12 µM. This molecule had an IC50 against FmlHLD (IC50 equated to a concentration, conversion of IC50 of 120 nM) of 0.12 µM. Moreover, in data set [1], the “SIF % remaining 2 h” value was 100.00%. The “SGF % remaining 6 h” value in data set [2] is listed as 100.00%. The “Mouse plasma % remaining 2 h” value in the data set “Mouse plasma stability” came to 100.00%. In addition, in data set [3], the “Mouse liver microsomes (t1/12 min)” value is >145 min.

As for `CC(=O)N[C@@H]1[C@H](Oc2cccc(C#N)c2-c2cccc(NS(C)(=O)=O)c2)OC(CO)[C@H](O)[C@@H]1O` (stereo partly drawn) [Compound 3079, N-((2S,3S,4R,5R)-2-((6-cyano-3′-(methylsulfonamido)-[1,1′-biphenyl]-2-yl)oxy)-4,5-dihydroxy-6-(hydroxymethyl)tetrahydro-2H-pyran-3-yl)acetamide], the solubility (kinetic) in “Kinetic solubility” (kinetic from dmso stock) is 196 µM (≈ 96.3 µg/mL). The same molecule yielded an IC50 at FmlHLD (setting [6]) of 0.11 µM. Besides, the “SIF % remaining 2 h” value in data set [1] was 100.00%. Besides, in data set [2], the “SGF % remaining 6 h” value is recorded as 86.77%. Also, the “Mouse plasma % remaining 2 h” value in “Mouse plasma stability” is 89.1%. In addition, in data set [3], the “Mouse liver microsomes (t1/12 min)” value is recorded as >145 min.

As a reminder, the half-life is how long it takes for the measured level to halve. A high value points to slow loss. Molecule `CC(=O)N[C@@H]1[C@H](Oc2cccc(C(F)(F)F)c2-c2cccc(NS(C)(=O)=O)c2)OC(CO)[C@H](O)[C@@H]1O` (stereo partly drawn) [Compound 3090, N-((2S,3S,4R,5R)-4,5-dihydroxy-6-(hydroxymethyl)-2-((3′-(methylsulfonamido)-6-(trifluoromethyl)-[1,1′-biphenyl]-2-yl)oxy)tetrahydro-2H-pyran-3-yl)acetamide] registered a kinetic solubility in the data set “Kinetic solubility” (kinetic from dmso stock) of 197 µM (≈ 105 µg/mL). Further, in data set [4], the bioavailability is < 1% and the “renal clearance to the urine” value was “low renal clearance to the urine”. Also, the half-life in data set [4] (setting [7]) was 1.16 h. Also, in data set [4] (rat plasma, 10 mg/kg PO or 3 mg/kg IV, read-out: clearance (Cl)), the clearance stood at 57 mL/min/kg. The “inhibitory potency against FmlH, in words” value on FmlHLD is on record as “highest potency of the compounds tested”. Further, half-maximal inhibition against FmlHLD (IC50) (IC50) required 0.085 µM. Besides, in data set [1], the “SIF % remaining 2 h” value is 91.9%. For the same molecule, the “SGF % remaining 6 h” value in data set [2] is listed as 89.25%. Also, the “Mouse plasma % remaining 2 h” value in “Mouse plasma stability” is reported as 92.2%. In addition, the “Mouse liver microsomes (t1/12 min)” value in data set [3] is listed as >145 min.
